The text below walks through data of ChEMBL document CHEMBL1201862, “PubChem BioAssay data set” (2004).

As usually defined, the GI50 is the concentration that inhibits growth by half.

What all share (test): DTP human tumour cell line panel, 48 h
Experiment [1] deals with A549.
Experiment [2] has as its system EKVX.
Experiment [3] has as its system HOP-92.
In experiment [4] the test system is KM12.
The subject of experiment [5] is M14.
Experiment [6] concerns MCF7.
The subject of experiment [7] is MDA-MB-435.
Experiment [8] deals with MDA-N.
Experiment [9] concerns MOLT-4.
Experiment [10] deals with NCI-H226.
In experiment [11] the test system is NCI-H460.
For experiment [12], the system named is NCI/ADR-RES.
For experiment [13], the system named is OVCAR-3.
Experiment [14] concerns RXF 393.
Experiment [15] relates to SK-MEL-2.
Experiment [16] relates to SNB-19.
Experiment [17] has as its system SNB-75.
Experiment [18] relates to UACC-62.
The subject of experiment [19] is SK-MEL-5.
The test system of experiment [20] is SR.

Each structure is given as a SMILES string.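 Results reflect a 48-hour exposure of cells in 96-well plates to compound at five concentrations. GI50 is the concentration that inhibits growth by half.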 Activity calls are given as the source filed them. No stated cut-off is given here; in the data, active = GI50 up to about 1.1 µM and inactive = higher. Some results are limits rather than exact numbers.

As for `COc1ccccc1OCC(=N/NC(=O)c1ccncc1)/N=C/c1cccnc1`, the GI50 in experiment [1], in [2], in [3], in experiment [4], in [5] and in [6] was > 100 µM (inactive) each time. Further, the GI50 in experiment [7], in [8], in experiment [9], in experiment [10], in experiment [11] and in [12] was > 100 µM (inactive) each time. Besides, the GI50 was > 100 µM (inactive) in experiment [13]; > 100 µM (inactive) in [14]; > 100 µM (inactive) in experiment [15]; > 100 µM (inactive) in experiment [16]; 36.5 µM (inactive) in experiment [17]; > 100 µM (inactive) in experiment [18].

`N#Cc1c2c(c(N)oc1=O)C(c1ccccc1)CC(=O)N2` (stereo not given): the GI50 in [1], in experiment [2], in experiment [3], in experiment [4], in experiment [5] and in experiment [6] was > 100 µM (inactive) in each case. The GI50 in experiment [7], in experiment [8], in [9], in experiment [10], in experiment [11] and in experiment [12] was > 100 µM (inactive) throughout. Further, the GI50 in experiment [13], in [14], in experiment [15], in experiment [19], in experiment [16] and in experiment [17] was > 100 µM (inactive) each time. In [18], the GI50 is > 100 µM (inactive).

As to `COC(=O)CCCC(=O)NC1=C(NCc2ccccc2)C(=O)c2ccccc2C1=O`, the GI50 in experiment [1] is 56.5 µM (inactive); in [2] it was 51.4 µM (inactive); in experiment [4] it was 53.7 µM (inactive); in experiment [5] it was 29.6 µM (inactive); in experiment [6], 30.3 µM (inactive); in experiment [7], 42.4 µM (inactive). Also, the GI50 in experiment [8] was 41.4 µM (inactive); in [9], 34 µM (inactive); in experiment [11] it was 52 µM (inactive); in [12] it was 27.3 µM (inactive); in experiment [13], 23 µM (inactive); in experiment [15], 87.5 µM (inactive). For the same compound, the GI50 is > 100 µM (inactive) in experiment [16], > 100 µM (inactive) in experiment [17], 46.5 µM (inactive) in experiment [20] and 29.2 µM (inactive) in [18].

Turning to `COc1cc(/C=C/c2ccccn2)cc(OC)c1OC`, the GI50 in [1], in experiment [2], in experiment [3], in experiment [4], in [5] and in experiment [6] was > 10 µM (inactive) each time. For the same compound, the GI50 in [7], in experiment [8], in [9], in experiment [10], in experiment [11] and in experiment [12] was > 10 µM (inactive) throughout. Moreover, the GI50 is > 10 µM (inactive) in experiment [13]; > 10 µM (inactive) in [14]; > 10 µM (inactive) in [15]; > 10 µM (inactive) in experiment [19]; > 10 µM (inactive) in experiment [16]; 7.78 µM (inactive) in experiment [17]. Moreover, the GI50 in [18] is > 10 µM (inactive).

With `Nc1nc(Cl)c(N)c(NCC2(CO)CCC(CCc3ccccc3)C2)n1` (stereo not given), the GI50 in [1] was 11.8 µM (inactive); in [2], 3.15 µM (inactive); in experiment [3], 19.3 µM (inactive); in experiment [4], 13.4 µM (inactive); in [5], 13.1 µM (inactive); in experiment [6], 7.59 µM (inactive). Moreover, the GI50 in [7] is 12.8 µM (inactive); in [8] it was 15.2 µM (inactive); in experiment [9], 0.759 µM (active); in [10] it was 18.2 µM (inactive); in experiment [11], 12.6 µM (inactive); in [12], > 39.5 µM (inactive). The GI50 was 18.7 µM (inactive) in [13]; 17.4 µM (inactive) in experiment [14]; 15.7 µM (inactive) in experiment [15]; 0.033 µM (active) in experiment [19]; 25.7 µM (inactive) in [16]; 25.4 µM (inactive) in experiment [17]. The GI50 in experiment [18] was 12.1 µM (inactive).

Take `NCCC(=O)N[C@H](Cc1cc(O)c(O)c(SCC(NC(=O)CC[C@H](N)C(=O)O)C(=O)NCC(=O)O)c1)C(=O)O` (stereo not given in full): the GI50 in experiment [1], in experiment [2], in experiment [3], in experiment [4], in [5] and in experiment [6] was > 50 µM (inactive) throughout. In addition, the GI50 in experiment [7], in experiment [8], in experiment [10], in experiment [11], in experiment [12] and in experiment [14] was > 50 µM (inactive) in each case. In addition, the GI50 in experiment [15], in experiment [19], in experiment [16], in experiment [17] and in experiment [18] was > 50 µM (inactive) in each case.

For `O=C1NC(c2c(Cl)cccc2Cl)Nc2ccccc21` (stereo not given), the GI50 is 54.6 µM (inactive) in experiment [1]; 56 µM (inactive) in [2]; 25.4 µM (inactive) in [3]; 16.4 µM (inactive) in experiment [4]; 34.8 µM (inactive) in [5]; 47.3 µM (inactive) in [6]. Besides, the GI50 in experiment [7] was 14.1 µM (inactive); in [8], 21.5 µM (inactive); in [9] it was 47.6 µM (inactive); in [10] it was 40.2 µM (inactive); in [11] it was 26.5 µM (inactive); in experiment [12], 21.8 µM (inactive). The GI50 is 50.1 µM (inactive) in experiment [13]; 70 µM (inactive) in [14]; 82.2 µM (inactive) in experiment [15]; 27 µM (inactive) in experiment [19]; 71.3 µM (inactive) in [16]; 2.89 µM (inactive) in experiment [17]. For the same compound, the GI50 in [18] is 37 µM (inactive).

For the compound `COc1ccc(-c2nc3ccccc3c(=S)n2OC(C)=O)cc1`, the GI50 was 2.5 µM (inactive) in [1]; 6.46 µM (inactive) in experiment [2]; > 25 µM (inactive) in experiment [3]; 1.64 µM (inactive) in experiment [4]; 4.98 µM (inactive) in experiment [5]; 5.92 µM (inactive) in [6]. Moreover, the GI50 was 7.1 µM (inactive) in experiment [7]; 12 µM (inactive) in experiment [8]; 1.15 µM (inactive) in experiment [9]; 7.85 µM (inactive) in experiment [10]; 1.05 µM (active) in [11]; 2.54 µM (inactive) in experiment [12]. Besides, the GI50 in experiment [14] is 8.75 µM (inactive); in [15], > 25 µM (inactive); in [19], 2.93 µM (inactive); in [16] it was 21.1 µM (inactive); in experiment [17] it was 6.84 µM (inactive); in experiment [18], 2.8 µM (inactive).
